Where “and” joins values, the source holds several entries; their conditions need not be identical. Identical values can stand only once. Entries after “also recorded” stand apart in the source; their conditions may differ.
Columns and labels:
[1] = test system: CT26 colon carcinoma model; assay: Immune pharmacodynamics in CT26 colon carcinoma model; format: in vivo, mouse; conditions: CT26 tumor infiltrating lymphocytes, CA-170 10 mg/kg daily, PD-1 antibody J43 100 µg/animal, 5 days, individual animals
From the text: For the measurement of immune pharmacodynamics, CT26 cells were subcutaneously implanted into 5 to 7 weeks old male Balb/c mice by injecting 1 million CT26 tumor cells/ animal. When tumor volume reached ~200mm^3, animals were randomized and allocated to three treatment groups (n = 5). Similarly, for the measurement of immune pharmacodynamics in MC38 model, MC38 cell lines were subcutaneously implanted into 5 to 7 weeks old male C57B6 mice by injecting 0.5 million cells/animal. Dosing was initiated when tumor volume reached ~100 mm^3. In both tumor models, mice were orally treated daily with vehicle and CA-170 (10 mg/kg) for 5 days. As an additional control, anti-PD1 antibody (100 μg/animal, clone J43) was dosed intraperitoneally on day 1. After 24 h of last dosing, animals were sacrificed, and blood samples and tumor tissues were collected from each animal and processed for PD evaluation using antibodies shown in Supplementary Table 1 and specific methods reported in publication[51] and analyzed by FACS. The gating strategy is detailed in Supplementary Fig. 3.

[2] = molecular target: T1, PD-L2 (Homo sapiens, UniProt Q9BQ51); assay: Rescue of IFN-γ release inhibited by PD-L2, human PBMC; format: cell-based; conditions: for IFNγ Rescue (%): inhibited by PD-L2; for IFNγ Rescue (%) / IFN-γ: replicates; for IFN-γ: human PBMCs + anti-CD3/anti-CD28 + PD-L2 10 nM
T1 construct: purchased R&D systems 1224-PL-100
T1 sequence (Q9BQ51 with tags, fused parts or gaps limits assumed): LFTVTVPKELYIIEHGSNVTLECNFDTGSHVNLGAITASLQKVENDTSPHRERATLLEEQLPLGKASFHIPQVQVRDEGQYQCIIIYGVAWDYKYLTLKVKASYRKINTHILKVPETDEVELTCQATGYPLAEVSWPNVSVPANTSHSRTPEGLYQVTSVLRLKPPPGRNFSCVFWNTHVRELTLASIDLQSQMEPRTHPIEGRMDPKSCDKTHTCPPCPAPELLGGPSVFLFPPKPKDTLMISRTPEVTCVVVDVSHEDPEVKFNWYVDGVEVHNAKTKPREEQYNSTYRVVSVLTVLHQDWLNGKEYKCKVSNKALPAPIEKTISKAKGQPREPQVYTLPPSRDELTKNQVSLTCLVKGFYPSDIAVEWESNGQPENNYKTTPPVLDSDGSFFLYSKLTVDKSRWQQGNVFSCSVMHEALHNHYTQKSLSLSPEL
Description: The ability of peptides, peptidomimetics, and small molecules were analyzed for their ability to rescue T-cell proliferation or IFN-γ release from the inhibitory activity of PD-L1 or PD-L2 in a splenocyte/PBMC-based functional assay as per the protocols reported in publication. […] For all in vitro assays, test agent stock was prepared in water and diluted further in the assay media to achieve test concentrations. Each experimental condition was carried out in triplicates. Percent rescue for a given test compound concentration was calculated by normalizing individual percent test agent proliferation or IFN-γ release values to percent anti-CD3 and anti-CD28 antibodies stimulated proliferation or IFN-γ release. EC50 values were derived by plotting transformed data into non-linear fit in sigmoidal dose–response curve using GraphPad Prism software (Version 7).

[3] = test system: CT26 colon carcinoma; assay: CT26 model, combination with docetaxel; format: in vivo, mouse; conditions: for Individual tumor volumes: CA-170 alone, individual animals; for TGI: CT26 in Balb/c mice, 12 days
Description: Studies in syngeneic models including B16 melanoma metastasis model and CT26 colon carcinoma subcutaneous model were performed as described. For the Docetaxel combination experiment in CT26 model, indicated dosage of docetaxel (Source: Docetere® injection by Dr Reddy’s Laboratories) was dosed intraperitoneally to animals. For the CA-170 combination groups, CA-170 (10 mg/kg/day, oral) was dosed ~10 min after docetaxel. Animal grouping, treatment efficacy assessment and %TGI calculations were performed as mentioned above. For the CT26 experiment with cyclophosphamide, 100 mg/kg of cyclophosphamide was dosed once on day 5 intraperitoneally after cell implantation (first day of dosing for all other groups). Anti-PD1 antibody (Clone J43 from BioXcel) was dosed intraperitoneally at 100 µg/animal once every week.

[4] = test system: MC38 colon carcinoma; assay: MC38 tumors in immunodeficient SCID beige mice; format: in vivo, mouse; conditions: for Individual tumor volumes: MC-38 in SCID beige mice, 10mg/kg, 10 mg/kg
Description: For MC38 syngeneic colon carcinoma subcutaneous model, 0.5 × 10^6 MC38 cells (Source: NCI/NIH, kind gift from Dr. Michael Pollack) were injected subcutaneously to the left flank of the C57B6 mouse (In-house) or SCID Beige mice (Source: Harlan, France) on day 1 and dosing was initiated when average tumor volume reached ~100 mm^3. Animals were randomized based on tumor volumes and treated with either a vehicle control or CA-170 at indicated doses for 14 days. Anti-PD1 antibody (Clone J43 from BioXcel) was dosed intraperitoneally at 100 µg/animal once every week. Treatment efficacy was assessed in terms of the effects of the test substances on the tumor volumes of treated mice relative to vehicle-treated mice. Tumor growth curves of test and control groups using the mean tumor volumes were drawn, percent tumor growth inhibition (%TGI) […].

[5] = test system: Galanin GAL1, GAL2; assay: CEREP 80 panel binding: Galanin; conditions: 10 µM
Description: CEREP 80 panel assay was carried out by Eurofins Cerep Panlabs facility at France. A series of binding assays was carried out to understand the off-target toxicity of CA-170. CA-170 was tested at 10 μM test concentration in duplicates. Compound binding was calculated as a % inhibition of the binding of a radioactively labeled ligand specific for each target. In each experiment the respective reference compound was tested concurrently with CA-170, and the data were compared with historical values determined at Eurofins. The experiment was accepted in accordance with Eurofins validation standard operating procedure. The results are expressed as a percent of control specific binding; (measured specific binding / control specific binding) × 100 and as a percent inhibition of control specific binding; 100−(measured specific binding / control specific binding) × 100 obtained in the presence of CA-170. The IC50 values (concentration causing a half-maximal inhibition of control specific binding) and Hill coefficients (nH) were determined by non-linear regression analysis of the competition curves generated with mean replicate values using Hill equation curve fitting.

C[C@@H](O)[C@H](NC(=O)N[C@@H](CC(N)=O)c1nc([C@@H](N)CO)no1)C(=O)O [CA-170]
Ki-67+ cells % Live, CD45+, CD3+, CD4+ T cells [1]: 57.1% and 63.22% and 64.66% and 82.55% and 45.02%
Ki-67+ cells % Live, CD45+, CD3+, CD8+ T cells [1]: 71.24% and 82.88% and 69.7% and 88.94% and 68.84%
OX-40+ cells % Live, CD45+, CD3+, CD4+ T cells [1]: 56.66% and 56.78% and 46.34% and 42.73% and 29.6%
OX-40+ cells % Live, CD45+, CD3+, CD8+ T cells [1]: 87.3% and 96.29% and 95.65% and 95.1% and 35.3%
IFNγ Rescue (%) ([2]; 1.95 nM): -64.52% and -5.10% and -5.67%
IFNγ Rescue (%) ([2]; 3.91 nM): -3.89% and -4.90% and -5.25%
IFNγ Rescue (%) ([2]; 7.81 nM): -1.08% and -2.04% and -2.73%
IFNγ Rescue (%) ([2]; 15.63 nM): 4.10% and 2.24% and 2.52%
IFN-γ ([2]; 31.25 nM): 66.5 pg/mL and 74 pg/mL and 64 pg/mL
IFNγ Rescue (%) ([2]; 31.25 nM): 4.10% and 2.86% and 1.89%
IFNγ Rescue (%) ([2]; 62.50 nM): 39.96% and 36.33% and 35.71%
IFNγ Rescue (%) ([2]; 250.00 nM): 74.73% and 74.90% and 79.20%
IFN-γ ([2]; 500 nM): 869 pg/mL and 984 pg/mL and 1059 pg/mL
IFNγ Rescue (%) ([2]; 500.00 nM): 73.43% and 77.14% and 85.50%
rescue of IFNγ release inhibited by recombinant PD-L2 (in words) ([2]; human PBMCs stimulated with anti-CD3 and anti-CD28): rescued IFNγ release
EC50 ([2]; mean ± S.D., n=3): 80.9 nM
Individual tumor volumes ([3]; day 1 of treatment): 20.16 mm3 and 32.48 mm3 and 34.58 mm3 and 45.49 mm3 and 48.25 mm3 and 58.95 mm3 and 62 mm3 and 77.12 mm3 and 87.62 mm3
Individual tumor volumes ([3]; day 4 of treatment): 46.73 mm3 and 66.38 mm3 and 43.09 mm3 and 70.24 mm3 and 54.41 mm3 and 118.43 mm3 and 93.26 mm3 and 105.24 mm3 and 188.91 mm3
Individual tumor volumes ([3]; day 6 of treatment): 73.66 mm3 and 96.49 mm3 and 125.38 mm3 and 93.3 mm3 and 88 mm3 and 204.79 mm3 and 132.26 mm3 and 118.36 mm3 and 317.89 mm3
Individual tumor volumes ([3]; day 8 of treatment): 84.62 mm3 and 174.68 mm3 and 185.55 mm3 and 147.74 mm3 and 147.76 mm3 and 334.98 mm3 and 214.88 mm3 and 178.28 mm3 and 601.81 mm3
Individual tumor volumes ([3]; day 11 of treatment): 209.65 mm3 and 360.36 mm3 and 315.63 mm3 and 279.2 mm3 and 265.42 mm3 and 706.83 mm3 and 356.89 mm3 and 376.42 mm3 and 728.46 mm3
TGI ([3]; CA-170 10 mg/kg/day single agent): 43%
TGI ([3]; combination CA-170 10 mg/kg and docetaxel 10 mg/kg): 68%
Individual tumor volumes ([4]; day 0 of treatment): 18.9 mm3 and 19.8 mm3 and 20.5 mm3 and 23 mm3 and 24.3 mm3 and 24.4 mm3 and 27.8 mm3 and 29.3 mm3 and 36.6 mm3 and 38.8 mm3 and 45.9 mm3
Individual tumor volumes ([4]; day 4 of treatment): 165.2 mm3 and 101 mm3 and 33 mm3 and 98.6 mm3 and 101.4 mm3 and 42.7 mm3 and 80.2 mm3 and 120.3 mm3 and 117 mm3 and 120.8 mm3 and 58.8 mm3
Individual tumor volumes ([4]; day 6 of treatment): 428.8 mm3 and 320.3 mm3 and 190.1 mm3 and 337.3 mm3 and 331.1 mm3 and 174.3 mm3 and 206.7 mm3 and 322.4 mm3 and 214 mm3 and 233.5 mm3 and 207.9 mm3
Individual tumor volumes ([4]; day 8 of treatment): 764.7 mm3 and 861.8 mm3 and 304.4 mm3 and 735.9 mm3 and 484.9 mm3 and 297 mm3 and 527.3 mm3 and 483.7 mm3 and 349.6 mm3 and 472.6 mm3 and 369.9 mm3
Individual tumor volumes ([4]; day 11 of treatment): 1229.8 mm3 and 1458.4 mm3 and 838.9 mm3 and 1334.2 mm3 and 1120.4 mm3 and 912.1 mm3 and 1214.1 mm3 and 1274.2 mm3 and 788.4 mm3 and 1032.8 mm3 and 931.5 mm3
Individual tumor volumes ([4]; day 13 of treatment): 1679 mm3 and 1958.7 mm3 and 1062 mm3 and 1678.6 mm3 and 1535.8 mm3 and 938 mm3 and 1760.9 mm3 and 1177.1 mm3 and 1641.5 mm3 and 1410.5 mm3
tumor growth vs vehicle in immunodeficient mice (in words) ([4]; SCID beige mice, MC-38, 10 mg/kg/day for 14 days): no difference in the tumor volumes; also recorded: no statistically significant difference
% Inhibition of Control Specific Binding [5]: ≤ 12%
